Reference: patent US20080145313A1, “Compositions and Methods for the Treatment and Prevention of Neoplastic Disorders” (Genesis Research & Development Corporation Limited, priority 2006, published 2008)

Assays:
[1] = test system: A549 cells; assay: Growth inhibition of siRNA-transfected A549 cells, SYBR Green I DNA content; type: cell-based, human; conditions: A549 cells, 10 nM siRNA, DNA content 96 hours after transfection, transporter gene targets
Outline: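 Growth read-out: cellular DNA quantified with SYBR Green I (485/535 nm) 96 h after transfection, cells frozen, thawed and lysed in PBS/1% Triton X-100, pH 7. Cells (A549, 5×10^3 cells/cm^2) received 10 nM siRNA by RNAiMAX; non-specific siRNA served as control; triplicate wells averaged.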

[2] = test system: target transcript mRNA in A549 cells; assay: Level of mRNA of target transcript in A549 cells by quantitative RT-PCR (Tables 12 and 13); type: cell-based, human; conditions: 24 h post-transfection; for mRNA knockdown of transporter gene target transcript, 0.1 nM: 0.1 nM siRNA; for mRNA knockdown of transporter gene target transcript, 1 nM: 1 nM siRNA
Outline: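 Target mRNA was measured by SYBR Green quantitative RT-PCR using random-primed cDNA, normalised to HPRT and Lamin. Samples came from A549 cells 24 h post-transfection with 0.1, 1.0 or 10 nM siRNA.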

| Substance | Growth Inhibition in A549 cells by 10 nM siRNA [1] | mRNA knockdown of transporter gene target transcript, 0.1 nM [2] | mRNA knockdown of transporter gene target transcript, 1 nM [2] |
| --- | --- | --- | --- |
| SEQ ID NO: 4956: siRNA targeting ATP6V1C1 (chain 1 TAGACTTCTAGTTAGCAAACTTCCT; chain 2 UAGACUUCUAGUUAGCAAACUUCCU; chemistry not given here; one strand in two spellings) | − (no growth inhibition) | ++ (70-90% mRNA knockdown) | ++ (70-90% mRNA knockdown) |
| SEQ ID NO: 4957: siRNA targeting ATP6V1C1 (chain 1 TAGACCTTGGAACTACCATTTCGGC; chain 2 UAGACCUUGGAACUACCAUUUCGGC; chemistry not given here; one strand in two spellings) | − (no growth inhibition) | ++ (70-90% mRNA knockdown) | ++ (70-90% mRNA knockdown) |
| SEQ ID NO: 4958: siRNA targeting ATP6V1E1 (chain 1 AGGAATTGCCTTCTGCACTGCAGCC; chain 2 AGGAAUUGCCUUCUGCACUGCAGCC; chemistry not given here; one strand in two spellings) | − (no growth inhibition) | + (50-70% mRNA knockdown) |  |
| SEQ ID NO: 4959: siRNA targeting ATP6V1E1 (chain 1 TGGTCAATTTGGACATCAACATCGT; chain 2 UGGUCAAUUUGGACAUCAACAUCGU; chemistry not given here; one strand in two spellings) | − (no growth inhibition) | − (<50% mRNA knockdown) | ++ (70-90% mRNA knockdown) |
| SEQ ID NO: 4960: siRNA targeting ATP6V1E1 (chain 1 TGGCATTTGCACCAAACAAGGCTCC; chain 2 UGGCAUUUGCACCAAACAAGGCUCC; chemistry not given here; one strand in two spellings) | − (no growth inhibition) | − (<50% mRNA knockdown) | + (50-70% mRNA knockdown) |
| SEQ ID NO: 4961: siRNA targeting ATP6V1F (chain 1 ATGTCATCCCGGTTTAGAAATTGCC; chain 2 AUGUCAUCCCGGUUUAGAAAUUGCC; chemistry not given here; one strand in two spellings) | − (no growth inhibition) | ++ (70-90% mRNA knockdown) | ++ (70-90% mRNA knockdown) |
| SEQ ID NO: 4962: siRNA targeting ATP6V1F (chain 1 TGGAGTCCTTGGCGGCGTCATATGG; chain 2 UGGAGUCCUUGGCGGCGUCAUAUGG; chemistry not given here; one strand in two spellings) | − (no growth inhibition) | − (<50% mRNA knockdown) | + (50-70% mRNA knockdown) |
| SEQ ID NO: 4963: siRNA targeting ATP6V1F (chain 1 TAGCGCAGGTCTTCGGCAGTGAACA; chain 2 UAGCGCAGGUCUUCGGCAGUGAACA; chemistry not given here; one strand in two spellings) | − (no growth inhibition) | ++ (70-90% mRNA knockdown) | ++ (70-90% mRNA knockdown) |
| SEQ ID NO: 4964: siRNA targeting ATP7A (chain 1 TAACCATCATATATATCATCAGCCC; chain 2 UAACCAUCAUAUAUAUCAUCAGCCC; chemistry not given here; one strand in two spellings) | − (no growth inhibition) | − (<50% mRNA knockdown) | − (<50% mRNA knockdown) |
| SEQ ID NO: 4965: siRNA targeting ATP7A (chain 1 TTATAATGCAGTGTCATCATCTTCC; chain 2 UUAUAAUGCAGUGUCAUCAUCUUCC; chemistry not given here; one strand in two spellings) | − (no growth inhibition) | − (<50% mRNA knockdown) | − (<50% mRNA knockdown) |
| SEQ ID NO: 4966: siRNA targeting ATP7A (chain 1 ATAGCTCCCAATTTGAGGTACTTGG; chain 2 AUAGCUCCCAAUUUGAGGUACUUGG; chemistry not given here; one strand in two spellings) | − (no growth inhibition) | − (<50% mRNA knockdown) | − (<50% mRNA knockdown) |
| SEQ ID NO: 4967: siRNA targeting ATP7B (chain 1 AATTCTGGTTAGCAGAAGATAAAGG; chain 2 AAUUCUGGUUAGCAGAAGAUAAAGG; chemistry not given here; one strand in two spellings) | + (inhibits by at least 50%) | − (<50% mRNA knockdown) | − (<50% mRNA knockdown) |
| SEQ ID NO: 4968: siRNA targeting ATP7B (chain 1 ATATCCCGTGGACCGATAATTTCCG; chain 2 AUAUCCCGUGGACCGAUAAUUUCCG; chemistry not given here; one strand in two spellings) | − (no growth inhibition) | − (<50% mRNA knockdown) | ++ (70-90% mRNA knockdown) |
| SEQ ID NO: 4969: siRNA targeting ATP7B (chain 1 AAGGGAGCCACTTTGCTCTTGATGG; chain 2 AAGGGAGCCACUUUGCUCUUGAUGG; chemistry not given here; one strand in two spellings) | − (no growth inhibition) | − (<50% mRNA knockdown) | ++ (70-90% mRNA knockdown) |
| SEQ ID NO: 4970: siRNA targeting ABCC4 (MRP4) (chain 1 AATCTTGGAAATCTCCTTCTTTCTC; chain 2 AAUCUUGGAAAUCUCCUUCUUUCUC; chemistry not given here; one strand in two spellings) | − (no growth inhibition) | ++ (70-90% mRNA knockdown) | ++ (70-90% mRNA knockdown) |
| SEQ ID NO: 4971: siRNA targeting ABCC4 (MRP4) (chain 1 CAATAATGGTGTTCAATCTGTGTGC; chain 2 CAAUAAUGGUGUUCAAUCUGUGUGC; chemistry not given here; one strand in two spellings) | − (no growth inhibition) | − (<50% mRNA knockdown) | ++ (70-90% mRNA knockdown) |
